From US8436160B2, “Isolated DNA fragment of the SPARC human promoter and its use for driving the expression of an heterologous gene in tumor cells” (Consejo Nacional de Investigaciones Cientificas y Tecnicas …, priority 2006, dated 2013)

Experiments:
hMEC-1 cells = test: Ad(I)-F512-TK lytic effect in monolayer with GCV prodrug; format: cell-based, human
Method: (§1) According to the present inventors' hypothesis, normal cells have more resistance to viral replication. In this case, adding a toxic gene would allow for the enhancement of the lytic capability in a specific manner in those cells wherein the SPARC promoter was active. Thus, in vitro assays with Ad(I)-F512-TK were carried out, in which the cells were also treated by adding ganciclovir (GCV) prodrug. […] Other analyzed endothelial cells were those of bovine aorta (BAEC, kindly provided by Helene Sage, Seattle, USA).

BAEC cells = test: as above; format: cell-based, Bovine
Method: as §1

[1] = system: A375N (melanoma), HeLa (cervix) and T-47D (breast) cell lines; test: Luciferase reporter promoter activity of SPARC promoter fragments; format: cell-based, human; settings: pGL3 constructs; relative to pGL3-Basic; A375N expresses SPARC, HeLa and T-47D do not
Text: The promoters obtained according to Example 2 were subcloned in the MluI/BglII, MluI/XhoI or NheI/XhoI sites of the pGL3-Basic plasmid (Promega Corp., Madison, Wis., USA) upstream of the luciferase reporter gene. All of the clonings was confirmed by restriction profiles and by sequencing the vectors (pGEM, TOPO and/or pGL3) with the universal primers T7 (TACGACTCACTATAGGG; SEQ ID NO 27); Sp6 (ATTTAGGTGACACTATAG; SEQ ID NO 28), T3 ([…]; SEQ ID NO 29) or P2 ([…]; SEQ ID NO 30) and P3 ([…]; SEQ ID NO 31).
The presence of the luciferase reporter gene allowed for the quantification of SPARC promoter activity in the 11 fragments obtained in Example 2, by measuring the luciferase enzymatic activity. The assay was performed in three cell lines, using the (melanoma) A375N line as a model since it expresses high SPARC levels and the (cervix) HeLa and (breast) T-47D lines, not expressing SPARC, according to the teachings of Example 1 above.
(§2) The cells were seeded in 24-well plates with a density of 4×10^4 cells/well. After 24 hours they were transfected using Lipofectamine2000 (Invitrogen Corp., Carlsbad, Calif.) according to the conditions indicated by the manufacturer. Each treatment was carried out at least in duplicate for each cell line, incubating 0.8 μg of treatment plasmid with 0.1 μg of pRL-CMV plasmid for 5 minutes with 50 μl DMEM medium without antibiotic and simultaneously, 1 μl Lipofectamine2000 with 50 μl of the same medium. These two preparations were mixed and incubated for 20 minutes at room temperature. The medium with cell serum was removed, washed with PBS and 200 μl high glucose DMEM was added without serum and without antibiotics; subsequently, 100 μl medium containing the lipofection mixture was added and 800 μl of culture medium corresponding to each cell line, supplemented with BFS, was added 4 hours later. The cells used were kept in a stove for 46 hours at 37° C. with 5% CO2. The Dual Luciferase Reporter Assay System kit (Promega Corp., Madison, Wis.) was used for the luciferase assay. This system implies the simultaneous expression of two individual reporter enzymes in the same system, allowing for the evaluation of the activity produced by the luciferase enzymes from the Firefly glow-worm (Photinus pyralis) and the Renilla coelenterate (Renilla reniformis) in only one sequential assay (Sherf, B. A. et al., Dual Luciferase Reporter Assay: An Advanced Co-Reporter Technology Integrating Firefly and Renilla Luciferase Assays. Promega Notes Magazine: 2-9, 1996). The data were normalized in the following way:
(§3) The data are expressed as induction amount relative to the activity obtained with the pGL3-Basic control plasmid (without promoter). […]

[2] = system: different tumor and normal cell lines; test: Luciferase reporter promoter activity, F512 vs Spdel; format: cell-based; settings: for promoter activity across cell lines vs SPARC expression: melanoma, colon (T84, LoVo), glioma (U87), cervix (HeLa)
Method: as §2, §3
(§4) The two promoters F512 and Spdel, having similar promoter activity and as identified by the method of Example 3A, were assessed in different tumor and normal cell lines (see references in Example 1).

melanoma line MEL888 = test: Luciferase reporter promoter activity; format: cell-based, human
Method: as §2
(§5) The data are expressed as induction amount relative to the activity obtained with the pGL3-Basic control plasmid (without promoter). The pGl3-promoter plasmid (pGL3-prom, Promega Corp., Madison, Wis.) wherein the viral promoter from SV40 drives the expression of the luciferase enzyme, was used as a transfection control.
as §4

SB2 line = test: Luciferase reporter promoter activity; format: cell-based, human
Method: as §2, §5, §4

T84 = test: Luciferase reporter promoter activity; format: cell-based, human
Method: as §2, §5, §4

fibroblast line WI-38 VA = test: Luciferase reporter promoter activity; format: cell-based, human
Method: as §2, §5, §4

endothelium BAEC line = test: Luciferase reporter promoter activity; format: cell-based, Bovine
Method: The cells were seeded in 24-well plates with a density of 4×10^4 cells/well. After 24 hours they were transfected using Lipofectamine2000 (Invitrogen Corp., Carlsbad, Calif.) according to the conditions indicated by the manufacturer. Each treatment was carried out at least in duplicate for each cell line, incubating 0.8 μg of treatment plasmid with 0.1 μg of pRL-CMV plasmid for 5 minutes with 50 μl DMEM medium without antibiotic and simultaneously, 1 μl Lipofectamine2000 with 50 μl of the same medium. These two preparations were mixed and incubated for 20 minutes at room temperature. The medium with cell serum was removed, washed with PBS and 200 μl high glucose DMEM was added without serum and without antibiotics; subsequently, 100 μl medium containing the lipofection mixture was added and 800 μl of culture medium corresponding to each cell line, supplemented with BFS, was added 4 hours later. The cells used were kept in a stove for 46 hours at 37° C. with 5% CO2. […]
as §3, §4

With Nc1nc(O)c2ncn(COC(CO)CO)c2n1 [GCV, ganciclovir] the “sensitivity of cells to prodrug alone” value (hMEC-1 cells) was “sensitive to the presence of the prodrug alone” and the “sensitivity of cells to prodrug” value (BAEC cells) was “sensitive to the prodrug”.

“Spdel: complete SPARC promoter −1175/+71 with the 10 bp between the two GGA boxes deleted, SEQ ID NO 18” was tested, and the “promoter activity and specificity (luciferase)” value [1] was “same activity than F512, in the A375N melanoma line”, the “promoter activity with respect to the empty vector pGL3-Basic” value ([2]; average, both in tumor and normal lines) was 140 times higher and the “promoter activity across cell lines vs SPARC expression” value [2] was “same activity in all lines”. The “promoter activity with respect to the empty vector pGL3-Basic” value (melanoma line MEL888) was 430 times higher.

With “−1175/+71: complete human SPARC promoter, SEQ ID NO 17” the “promoter activity and specificity (luciferase)” value [1] was “lower promoter activity in melanoma lines”.

B1: F512: human SPARC promoter fragment from base pair −513 to +35, SEQ ID NO 1 (nucleic acid, listed as Homo sapiens)
DNA: GCAGCTTGTCTTGTCTGTACAGTGGTAAGTCCTGGCCTTGCCTTTGTGGCAAATACAACCCCCTTGAATTGCTTGGCCCTTCTCAGCATTGCCTAATATTAGGGAGGACTCCTGTAAAGCTCACTGGTTAGAAGATCAAGACACTTGGGCCTGGTTCTGCCCCTGGGGGCCATTGGGTAATTCCTTGCAGTCTCCAGGCCTCACTTGCCCTCTGAACAAGAAAGAGGCTGTTCTGGGTCATCCCTCCAGGCCTGTCCAGCCCTGGCACTCTGTGAGTCGGTTTAGGCAGCAGCCCCGGAACAGATGAGGCAGGCAGGGTTGGGACGTTTGGTCAGGACAGCCCACCGCAAAAAGAGGAGGAAAGAAATGAAAGACAGAGACAGCTTTGGCTATGGGAGAAGGAGGAGGCCGGGGGAAGGAGGAGACAGGAGGAGGAGGGACCACGGGGTGGAGGGGAGATAGACCCAGCCCAGAGCTCTGAGTGGTTTCCTGTTGCCTGTCTCTAAACCCCTCCACATTCCCGCGGTCCTTCAGACTGCCCGGAGAGC
modifications: DNA fragment of the SPARC human promoter.
B1 was tested, and the “promoter activity and specificity (luciferase)” value [1] was “higher specificity and higher activity in the line expressing SPARC”, the “promoter activity across cell lines vs SPARC expression” value [2] was “lower activity in those lines with little or null SPARC expression” and the “promoter activity relative to the activity observed in A375N” value (SB2 line) was “approximately ⅓”. The “promoter activity relative to melanoma lines” value (T84) was “half the activity observed for the melanoma lines”, the promoter activity (fibroblast line WI-38 VA) was “active” and the promoter activity (endothelium BAEC line) was “active”.

B2: −120/+71: SPARC promoter fragment including the complete first exon, SEQ ID NO 24 (nucleic acid, listed as Homo sapiens)
DNA: GGGAGAAGGAGGAGGCCGGGGGAAGGAGGAGACAGGAGGAGGAGGGACCACGGGGTGGAGGGGAGATAGACCCAGCCCAGAGCTCTGAGTGGTTTCCTGTTGCCTGTCTCTAAACCCCTCCACATTCCCGCGGTCCTTCAGACTGCCCGGAGAGCGCGCTCTGCCTGCCGCCTGCCTGCCTGCCACTGAGG
With B2 the “promoter activity and specificity (luciferase)” value [1] was “higher unspecificity”.
